Values quoted from earlier work in patent publication US10398673B2, “Mast cell stabilizers treatment for systemic disorders” (Respivant Sciences GmbH, priority 2014, dated 2019).

O=C(O)c1cc(=O)c2c(OCC(O)COc3cccc4oc(C(=O)O)cc(=O)c34)cccc2o1 [cromolyn sodium]
oral bioavailability: less than 1%
